Results: patent US10308592B2 (priority 2014, dated 2019)
Like-named read-outs stand apart in the source and are kept apart here.

Key:
male Sprague-Dawley rats = conditions: rat, in vivo
[1] = male, Sprague-Dawley, rat
rat [2] = conditions: in vivo; cited from earlier work
rat [3] = conditions: in vivo
mouse [4] = conditions: in vivo, inhaled or intranasal
mouse [5] = conditions: in vivo; cited from earlier work
in vivo = conditions: rat, po, 300 mg/kg
rats = conditions: rat, in vivo, po, 300 mg/kg

Structure (SMILES): COC(F)(F)C(F)N1C(F)(F)C(F)(F)OC(F)(F)C1(F)F (centres unmarked) [Example 1, 2,2,3,3,5,5,6,6-octafluoro-4-(1,2,2-trifluoro-2-methoxy-ethyl)morpholine]
- LC50 (LD50) data - inhalation (male Sprague-Dawley rats; male, Sprague-Dawley): LC50 >5000 ppm
- 4 hour LC-50 (male Sprague-Dawley rats): > 5000 ppm (v/v)
- Clinical observations, body or organ weight effects (male Sprague-Dawley rats): no significant clinical observations or body or organ weight effects were noted
- Survival and appearance during 14 day post dose recovery period (male Sprague-Dawley rats): All animals survived and appeared normal
- NOAEL (No Observable Adverse Effect Level) (male Sprague-Dawley rats; inhaled or intranasal): > 5000 ppm (v/v)
- NOAEL/NOEL data: NOEL (male Sprague-Dawley rats; inhaled or intranasal): NOEL >5000 ppm
- Acute Vapor Hazard Ratio [1]: 4
- chromatographic logP (physchem): 4.46

Structure (SMILES): FC(F)C(F)(F)OCC(F)(F)F [AE-3000, CF3CH2OCF2CF2H]
- LC50 (LD50) data - inhalation (rat [2]): LC50 3010 ppm

Structure (SMILES): CC(OC(F)(F)C(F)C(F)(F)F)C(F)(F)C(F)C(F)(F)F (centres unmarked) [Novec 7600, CF3CFHCF2CH(CH3)OCF2CFHCF3]
- NOAEL/NOEL data: NOEL (rat [3]; inhaled or intranasal): 29d) <500 ppm

Structure (SMILES): COC(F)(F)C(C(F)(F)F)C(F)(F)F [OIME, (CF3)2CHCF2OCH3]
- NOAEL/NOEL data: NOAEL by inference (mouse [4]): <660 ppm (mouse,
- LC50 (LD50) data - inhalation (mouse [5]): LC50 660 ppm

Structure (SMILES): COC(F)(F)C(F)C(F)(F)F (centres unmarked) [301-monohydride, CF3CFHCF2OCH3]
- LC50 (LD50) data - inhalation (rat [3]): LC50 >10,000 ppm
- NOAEL/NOEL data: NOAEL by inference (rat [3]; inhaled or intranasal): <10,000 ppm (rat

Structure (SMILES): FC(F)C(F)(F)COC(F)(F)C(F)N1C(F)(F)C(F)(F)OC(F)(F)C1(F)F (centres unmarked) [Example 2, 2,2,3,3,5,5,6,6-octafluoro-4-[1,2,2-trifluoro-2-(2,2,3,3-tetrafluoropropoxy)ethyl]morpholine]
- LD50 (in vivo): > 300 mg/kg
- Adverse clinical observations during post dose recovery period (rats): No adverse clinical observations were noted
- Necropsy results (rats): normal for all animals
